The values below come from ChEMBL document CHEMBL5331122, “Structure-Activity Relationship Study of Antimicrobial Peptide PE2 Delivered Novel Linear Derivatives with Potential of Eradicating Biofilms and Low Incidence of Drug Resistance” (J Med Chem, 2023).

As a reminder, the EC50 is the concentration needed to bring the measured effect to its halfway point. The term MIC denotes the smallest concentration in the dilution series that meets the test's criterion for growth inhibition.

Data set [1] deals with Staphylococcus aureus. Nature of the data set: Antimicrobial activity against methicillin-resistant Staphylococcus aureus 48 assessed as inhibition of microbial growth incubated for 18 hrs by broth microdilution analysis. Format: functional, organism-based. The note with it: Staphylococcus aureus, 48, 18 h. In general terms: Dilution methods test growth across graded concentrations, often in twofold steps.

The test system of data set [2] is Staphylococcus aureus. Nature of the data set: Antimicrobial activity against methicillin-resistant Staphylococcus aureus 52 assessed as inhibition of microbial growth incubated for 18 hrs by broth microdilution analysis. In kind it is functional, organism-based. The note with it: Staphylococcus aureus, 52, 18 h.
Data set [3] has as its system Staphylococcus aureus. Nature of the data set: Antimicrobial activity against methicillin-resistant Staphylococcus aureus 54 assessed as inhibition of microbial growth incubated for 18 hrs by broth microdilution analysis. The note with it: Staphylococcus aureus, 54, 18 h. Format: functional, organism-based.
The subject of data set [4] is Staphylococcus aureus. Kind of data set: Antimicrobial activity against methicillin-resistant Staphylococcus aureus 74 assessed as inhibition of microbial growth incubated for 18 hrs by broth microdilution analysis. Format: functional, organism-based. The note with it: Staphylococcus aureus, 74, 18 h.
The test system of data set [5] is Staphylococcus aureus. Kind of data set: Antimicrobial activity against methicillin-resistant Staphylococcus aureus 936 assessed as inhibition of microbial growth incubated for 18 hrs by broth microdilution analysis. In kind it is functional, organism-based. The note with it: Staphylococcus aureus, 936, 18 h.
Data set [6] concerns Escherichia coli. Kind of data set: Antimicrobial activity against Escherichia coli 780 assessed as inhibition of microbial growth incubated for 18 hrs by broth microdilution analysis. The note with it: Escherichia coli, 780, 18 h. In kind it is functional, organism-based.
Data set [7] deals with Escherichia coli. Nature of the data set: Antimicrobial activity against Escherichia coli 804 assessed as inhibition of microbial growth incubated for 18 hrs by broth microdilution analysis. Format: functional, organism-based. The note with it: Escherichia coli, 804, 18 h.
Data set [8] deals with Escherichia coli. Nature of the data set: Antimicrobial activity against Escherichia coli 850 assessed as inhibition of microbial growth incubated for 18 hrs by broth microdilution analysis. The conditions noted are these: Escherichia coli, 850, 18 h. Format: functional, organism-based.
For data set [9], the system named is Pseudomonas aeruginosa. Kind of data set: Antimicrobial activity against Pseudomonas aeruginosa 86 assessed as inhibition of microbial growth incubated for 18 hrs by broth microdilution analysis. Format: functional, organism-based. The note with it: Pseudomonas aeruginosa, 86, 18 h.
Data set [10] relates to Pseudomonas aeruginosa. Nature of the data set: Antimicrobial activity against Pseudomonas aeruginosa 119 assessed as inhibition of microbial growth incubated for 18 hrs by broth microdilution analysis. Format: functional, organism-based. The conditions noted are these: Pseudomonas aeruginosa, 119, 18 h.
Data set [11] deals with Pseudomonas aeruginosa. Kind of data set: Antimicrobial activity against Pseudomonas aeruginosa 124 assessed as inhibition of microbial growth incubated for 18 hrs by broth microdilution analysis. In kind it is functional, organism-based. The note with it: Pseudomonas aeruginosa, 124, 18 h.
Data set [12] can be described thus: Hemolytic activity in mouse red blood cells assessed as hemolysis at 128 microg/ml incubated for 1 hr relative to control. In kind it is toxicity, cell-based, Erythrocyte. The note with it: red blood cells (erythrocytes), read-out: Activity.
The test system of data set [13] is Escherichia coli. Kind of data set: Antibacterial activity against rifampicin-resistant Escherichia coli ATCC 25922 assessed as reduction in bacterial growth incubated for 18 hrs by broth microdilution method. Format: functional.
Data set [14] deals with Staphylococcus aureus. Kind of data set: Bactericidal activity against Staphylococcus aureus ATCC 25923 assessed as inhibition of bacterial growth at 2 times MIC measured upto 360 mins by time-kill assay. Format: functional, organism-based.
Data set [15] concerns Staphylococcus aureus. Kind of data set: Bactericidal activity against Staphylococcus aureus ATCC 25923 assessed as inhibition of bacterial growth at 2 times MIC measured at 30 mins by time-kill assay. In kind it is functional, organism-based.
The subject of data set [16] is Escherichia coli. Kind of data set: Antimicrobial activity against Escherichia coli ATCC 25922 assessed as reduction in microbial growth measured for 18 hrs in presence of […] microg/ml LPS. In kind it is functional, organism-based.
For data set [17], the system named is Klebsiella pneumoniae. Kind of data set: Antibacterial activity against Klebsiella pneumoniae ATCC 700603 infected in BALB/c mouse pneumonia model assessed as reduction in lung bacterial load at 5 to 10 mg/kg, ip measured at 4 to 12 hrs. The conditions noted are these: dose 5-10 mg/kg, time 4-12 hrs. In kind it is functional, organism-based.
The test system of data set [18] is Klebsiella pneumoniae. Nature of the data set: Antibacterial activity against Klebsiella pneumoniae ATCC 700603 infected in BALB/c mouse pneumonia model assessed as reduction in infiltration of inflammatory cells at 10 mg/kg, ip measured at 4 to 12 hrs by hematoxylin and eosin staining based analysis. Format: functional, organism-based. The conditions noted are these: time 4-12 hrs.

Data set [19] relates to Klebsiella pneumoniae. Kind of data set: Antibacterial activity against Klebsiella pneumoniae ATCC 700603 infected in BALB/c mouse pneumonia model assessed as alveolar expansion at 10 mg/kg, ip measured at 4 to 12 hrs by hematoxylin and eosin staining based analysis. Format: functional, organism-based. The conditions noted are these: time 4-12 hrs.
Data set [20] in a line: Acute toxicity in Kunming mouse assessed as survival rate at 20 to 80 mg/kg, ip measured after 4 hrs. Format: organism-based. The conditions noted are these: in vivo, dose 20-80 mg/kg.
Data set [21] in a line: Hemolytic activity in mouse red blood cells assessed as hemolysis at 256 microg/ml incubated for 1 hr relative to control. In kind it is toxicity, cell-based, Erythrocyte. The note with it: red blood cells (erythrocytes), at 256 µg/mL, read-out: Activity.
Data set [22] concerns Escherichia coli. Kind of data set: Synergistic antibacterial activity against Escherichia coli ATCC 25922 assessed as fractional inhibitory concentration index incubated for 18 hrs in presence of rifampicin by checkerboard assay. In kind it is functional.
Data set [23] deals with Escherichia coli. Nature of the data set: Synergistic antibacterial activity against Escherichia coli ATCC 25922 assessed as fractional inhibitory concentration index incubated for 18 hrs in presence of gentamycin by checkerboard assay. In kind it is functional.
Data set [24] deals with Escherichia coli. Kind of data set: Synergistic antibacterial activity against Escherichia coli ATCC 25922 assessed as fractional inhibitory concentration index incubated for 18 hrs in presence of PMB by checkerboard assay. Format: functional.
Data set [25] concerns Staphylococcus aureus. Kind of data set: Bactericidal activity against Staphylococcus aureus ATCC 25923 assessed as inhibition of bacterial growth at 0.5 to 2 times MIC measured at 180 mins by time-kill assay. In kind it is functional, organism-based.
The test system of data set [26] is Staphylococcus aureus. Nature of the data set: Bactericidal activity against Staphylococcus aureus ATCC 25923 assessed as inhibition of bacterial growth at 2 times MIC measured at 120 mins by time-kill assay. Format: functional, organism-based.
A short description of data set [27]: Acute toxicity in Kunming mouse assessed as survival rate at 20 to 60 mg/kg, ip measured after 4 hrs. In kind it is organism-based. The note with it: in vivo, dose 20-60 mg/kg.
The subject of data set [28] is Escherichia coli. Kind of data set: Bactericidal activity against Escherichia coli ATCC 25922 assessed as inhibition of bacterial growth at 0.5 to 2 times MIC measured at 90 mins by time-kill assay. In kind it is functional, organism-based.
Data set [29] has as its system Escherichia coli. Nature of the data set: Bactericidal activity against Escherichia coli ATCC 25922 assessed as inhibition of bacterial growth at 1 times MIC measured at 120 mins by time-kill assay. In kind it is functional, organism-based.
Data set [30] concerns Staphylococcus aureus. Nature of the data set: Bactericidal activity against Staphylococcus aureus ATCC 25923 assessed as inhibition of bacterial growth at 2 times MIC measured at 60 mins by time-kill assay. Format: functional, organism-based.

The source made the active and inactive calls.

In the case of `CCCCCCCC(=O)N[C@@H](CCN)C(=O)N[C@H](C(=O)N[C@@H](CCN)C(=O)N[C@H](Cc1ccccc1)C(=O)N[C@@H](CC(C)C)C(=O)N[C@@H](CCN)C(=O)N[C@@H](C(=O)N[C@@H](CC(C)C)C(=O)N[C@@H](Cc1ccc(O)cc1)C(N)=O)C(C)C)[C@@H](C)CC`, the EC50 in the data set with Staphylococcus aureus [1] was 5.48 µg/mL; in the data set with Staphylococcus aureus [2], 4.46 µg/mL; with Staphylococcus aureus [3], 4.33 µg/mL; in the data set on Staphylococcus aureus [4], 5.1 µg/mL; with Staphylococcus aureus [5], 6.12 µg/mL; in the data set with Escherichia coli [6], 2.55 µg/mL. The EC50 in the data set on Escherichia coli [7] is 2.36 µg/mL; in the data set on Escherichia coli [8], 2.42 µg/mL; in the data set with Pseudomonas aeruginosa [9], 2.08 µg/mL; in the data set on Pseudomonas aeruginosa [10], 2.31 µg/mL; with Pseudomonas aeruginosa [11], 2.76 µg/mL. The hemolysis at 1 h, 128 µg/mL in data set [12] amounted to 10%. The MIC in the data set on Escherichia coli [13] was < 8 µg/mL. Moreover, the outcome in the data set with Staphylococcus aureus [14], in the data set on Staphylococcus aureus [15], in the data set on Escherichia coli [16], in the data set with Klebsiella pneumoniae [17], in the data set with Klebsiella pneumoniae [18] and with Klebsiella pneumoniae [19] was Active. In addition, the Activity entry in data set [20] is given as “Toxic”.

Regarding `CCCCCCC(=O)N[C@@H](CCN)C(=O)N[C@H](C(=O)N[C@@H](CCN)C(=O)N[C@H](Cc1ccccc1)C(=O)N[C@@H](CC(C)C)C(=O)N[C@@H](CCN)C(=O)N[C@@H](C(=O)N[C@@H](CC(C)C)C(=O)N[C@@H](Cc1ccc(O)cc1)C(N)=O)C(C)C)[C@@H](C)CC`, in data set [21], the hemolysis at 1 h, 256 µg/mL was < 10%. The MIC in the data set with Escherichia coli [13] is < 8 µg/mL. Also, the figures for the “fractional inhibitory concentration index (FICI)” value in the data set with Escherichia coli [22], with Escherichia coli [23] and with Escherichia coli [24] were 0.312, 0.5 and 0.312, respectively. The outcome with Staphylococcus aureus [25], in the data set with Staphylococcus aureus [26] and in the data set on Klebsiella pneumoniae [17] was Active. In addition, in data set [27], the Activity entry is on record as “Toxic”.

Consider `CC[C@H](C)[C@@H]1NC(=O)[C@H](CCN)NC(=O)C[C@@H](C(C)C)OC(=O)[C@H]([C@@H](C)O)NC(=O)[C@H](CC(C)C)NC(=O)[C@@H](C(C)C)NC(=O)[C@H](CCN)NC(=O)[C@H](CC(C)C)NC(=O)[C@@H](Cc2ccccc2)NC(=O)[C@H](CCN)NC1=O`, for which the outcome in the data set with Escherichia coli [28], in the data set with Escherichia coli [29] and in the data set with Staphylococcus aureus [30] was Active.
